# From ChEMBL document CHEMBL5614430, “Discovery, synthesis and SAR of 2-acyl-1-biarylmethyl pyrazolidines, dual orexin receptor antagonists designed as fast and short-acting sleeping drugs” (Bioorg Med Chem, 2024)
# Tests used:
# in vitro = settings: dog, MDCK-MDR1, Papp
# physchem = settings: buffer, pH 7.4
# in vivo [1] = settings: Beagle, dog, po, 10 mg/kg
# in vivo [2] = settings: Beagle, dog, iv, 1 mg/kg
# in vivo [3] = settings: Beagle, dog, iv, 1 mg/kg; remark: listed apart in the source
# in vivo [4] = settings: Beagle, dog, po, 10 mg/kg; remark: listed apart in the source
# in vivo [5] = settings: Beagle, dog, po, 10 mg/kg; remark: listed apart in the source
# in vivo [6] = settings: Beagle, dog, po, 10 mg/kg; remark: listed apart in the source
Papp A→B (in vitro),logD (physchem),SMILES,other results
,> 4.1,O=C(C1CCCCC1)N1C[C@@H]2COc3ccccc3[C@@H]2N1Cc1cccc(-c2ncon2)c1,
0.78 ×10⁻⁶ cm/s,2.8,Cn1ccc(C(=O)N2C[C@@H]3COc4cc(F)ccc4[C@@H]3N2Cc2cccc(-c3ncccn3)c2)n1 (racemic),
9.3 ×10⁻⁶ cm/s,3.3,Cn1ccc(C(=O)N2C[C@@H]3CCc4cc(F)ccc4[C@@H]3N2Cc2cccc(-c3ncccn3)c2)n1 (racemic),

# The remaining lines, values behind:
SMILES,Papp A→B (in vitro),logD (physchem),other results
COc1cc(CN2[C@H]3c4ccccc4OC[C@H]3CN2C(=O)C2CCCCC2)cc(OC)c1,17 ×10⁻⁶ cm/s,3.8,
Cc1ccc(-n2nccn2)c(C(=O)N2CCCN2Cc2ccn(-c3ccccc3)n2)c1,,,AUC (in vivo [1]): 1040 ng·h/mL; clearance (in vivo [2]): 17 mL/min/kg; Vd (in vivo [3]): 0.8 L/kg; Tmax (in vivo [4]): 3.55 h; bioavailability (in vivo [5]): 10%; Cmax (in vivo [6]): 287 ng/mL
